Data: patent US20190247376A1, “NICOTINIC ACETYLCHOLINE RECEPTOR AGONIST ATTENUATES ILC2-DEPENDENT AIRWAY HYPERREACTIVITY” (University of Southern California, priority 2016, published 2019)

Experiments:
human ILC2s = experiment: In vitro culture of human ILC2s, IL-5 and IL-13 production; assay type: cell-based; details: agonist 10 μg mL−1; rh-IL-2, rh-IL-7, rh-IL-33; 24h
Protocol: FIGS. 7A-7E: α7nAChR agonist prevents human ILC2s mediated AHR and allergic. (FIG. 7A) Human ILC2s were purified from PBMCs via FACS and cultured (10^4 cells per mL) in the presence of recombinant human IL-33 (20 ng mL^−1), IL-2 (10 ng mL^−1), and IL-7 (20 ng mL^−1), with or without α7nAChR agonist for 24h. In the right panel, data are presented as means of four individual donors. (FIG. 7B) Human peripheral-blood mononuclear cells were isolated via FACS and cultured in the presence or absence of rh-IL-2 (10 ng mL^−1) and rh-IL-7 (20 ng mL^−1) for 48 hours, then adoptively transferred into Rag2^−/− GC^−/− mice that were intranasally challenged with rm-IL-33 or PBS, with or without α7nAChR agonist (125 μg) on days 1-3. […]
For human peripheral ILC2s, peripheral blood mononuclear cells (PBMCs) were first isolated from human fresh blood by diluting the blood 1:1 in PBS, adding to SepMate™-50 separation tubes (STEMCELL Technologies Inc, Vancouver, Canada) prefilled with 15-mL Lymphoprep™ each (Axis-Shield, Oslo, Norway), and centrifuging at 1200 g for 15 minutes. […] On day 4, lung function was measured and BAL was performed and analyzed.
Murine ILC2s were isolated from BALB/cByJ mice to >95% purity using the FACSARIA III cell sorter. […] Levels of cytokines were measured by ELISA (eBioscience), according to the manufacturer's instructions.

α7 subtype of nAChR = α7 subtype of nAChR (Homo sapiens, UniProt P36544); details: cited from earlier work
Sequence of α7 subtype of nAChR (P36544 23-502): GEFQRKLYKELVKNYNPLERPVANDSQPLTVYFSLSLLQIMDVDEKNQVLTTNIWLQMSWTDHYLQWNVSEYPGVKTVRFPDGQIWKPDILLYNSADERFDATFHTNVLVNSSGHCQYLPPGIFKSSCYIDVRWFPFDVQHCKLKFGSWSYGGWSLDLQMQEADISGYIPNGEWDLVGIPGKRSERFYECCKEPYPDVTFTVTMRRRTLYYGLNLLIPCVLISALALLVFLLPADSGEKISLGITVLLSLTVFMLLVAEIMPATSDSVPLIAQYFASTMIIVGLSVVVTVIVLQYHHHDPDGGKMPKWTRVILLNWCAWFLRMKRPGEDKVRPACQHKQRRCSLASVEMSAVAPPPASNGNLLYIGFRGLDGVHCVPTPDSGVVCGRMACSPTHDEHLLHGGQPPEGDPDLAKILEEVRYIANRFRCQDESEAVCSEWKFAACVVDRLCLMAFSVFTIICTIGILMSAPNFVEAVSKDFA

Compound: COc1ccc(/C=C2\CCCN=C2c2cccnc2)c(OC)c1 [GTS-21, 3-[(3E)-3-[(2,4-dimethoxyphenyl)methylidene]-5,6-dihydro-4H-pyridin-2-yl]pyridine]
- IL-5 production by human ILC2s (human ILC2s): decreasing
- IL-13 production by human ILC2s (human ILC2s): decreasing
- activation of nAChR subtypes (α7 subtype of nAChR): activates only the α7 subtype to a significant extent
